Measured values from US20230295235A1, “COMPOUNDS TARGETING ALPHA4-BETA7 INTEGRIN” (ZEALAND PHARMA A/S, priority 2020, published 2023).
pIC50: −log10 of the molar value.

Molecular target: T1, α4β7 integrin (MAdCAM-1 binding, α4β7-positive Th memory cells) (Homo sapiens, UniProt P13612+P26010)
T1 construct: endogenous in cells; host or cells: human whole blood
T1 sequence (P13612 34-1032): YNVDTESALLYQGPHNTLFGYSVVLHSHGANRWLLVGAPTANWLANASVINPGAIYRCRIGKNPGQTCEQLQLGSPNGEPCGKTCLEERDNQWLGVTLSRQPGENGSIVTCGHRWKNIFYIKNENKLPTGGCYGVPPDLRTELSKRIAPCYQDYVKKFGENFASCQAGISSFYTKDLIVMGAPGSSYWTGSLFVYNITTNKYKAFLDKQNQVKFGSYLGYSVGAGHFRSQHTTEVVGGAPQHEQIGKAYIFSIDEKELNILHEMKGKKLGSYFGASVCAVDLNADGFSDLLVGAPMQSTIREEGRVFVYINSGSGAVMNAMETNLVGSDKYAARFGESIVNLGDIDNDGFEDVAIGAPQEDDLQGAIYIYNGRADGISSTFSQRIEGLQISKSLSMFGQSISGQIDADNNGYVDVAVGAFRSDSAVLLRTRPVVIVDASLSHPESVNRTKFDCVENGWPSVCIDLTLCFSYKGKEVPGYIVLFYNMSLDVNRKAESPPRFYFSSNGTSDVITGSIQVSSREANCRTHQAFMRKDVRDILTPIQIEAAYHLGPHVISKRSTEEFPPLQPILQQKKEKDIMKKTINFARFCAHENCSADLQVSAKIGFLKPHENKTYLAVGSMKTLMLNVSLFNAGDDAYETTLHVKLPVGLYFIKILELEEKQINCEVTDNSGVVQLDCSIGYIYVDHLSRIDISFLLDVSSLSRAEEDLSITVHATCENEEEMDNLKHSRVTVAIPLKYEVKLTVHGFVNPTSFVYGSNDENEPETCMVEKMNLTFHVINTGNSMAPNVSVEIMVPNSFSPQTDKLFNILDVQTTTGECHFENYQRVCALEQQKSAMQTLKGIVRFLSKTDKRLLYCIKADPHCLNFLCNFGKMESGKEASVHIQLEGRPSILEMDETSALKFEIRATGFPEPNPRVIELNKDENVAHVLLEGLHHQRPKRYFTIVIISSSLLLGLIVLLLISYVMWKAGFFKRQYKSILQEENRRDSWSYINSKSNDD
T1 sequence (P26010 20-798): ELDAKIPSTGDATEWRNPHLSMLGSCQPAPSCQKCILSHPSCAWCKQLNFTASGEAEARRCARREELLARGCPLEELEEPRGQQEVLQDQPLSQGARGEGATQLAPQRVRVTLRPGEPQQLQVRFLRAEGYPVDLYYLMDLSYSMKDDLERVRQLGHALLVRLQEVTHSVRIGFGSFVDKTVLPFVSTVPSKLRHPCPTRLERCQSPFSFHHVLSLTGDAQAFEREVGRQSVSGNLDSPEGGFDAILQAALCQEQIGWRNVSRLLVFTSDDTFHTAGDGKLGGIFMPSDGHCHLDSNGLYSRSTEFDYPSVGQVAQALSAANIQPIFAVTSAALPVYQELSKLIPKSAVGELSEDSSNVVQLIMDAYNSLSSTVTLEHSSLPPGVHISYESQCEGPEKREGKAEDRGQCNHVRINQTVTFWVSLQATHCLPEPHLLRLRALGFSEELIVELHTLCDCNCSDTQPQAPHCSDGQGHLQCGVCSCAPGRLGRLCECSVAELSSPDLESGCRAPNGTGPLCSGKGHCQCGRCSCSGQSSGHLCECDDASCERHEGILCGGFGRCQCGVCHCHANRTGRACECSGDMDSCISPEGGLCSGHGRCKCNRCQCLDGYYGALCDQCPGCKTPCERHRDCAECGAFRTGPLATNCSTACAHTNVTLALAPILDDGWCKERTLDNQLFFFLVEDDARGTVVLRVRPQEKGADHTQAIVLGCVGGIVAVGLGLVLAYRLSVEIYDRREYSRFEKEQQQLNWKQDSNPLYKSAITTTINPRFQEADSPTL
Experiment: Competition assay: inhibition of biotinylated rhMAdCAM-1-Fc binding to α4β7-positive Th memory cells in whole blood (FACS receptor occupancy)
Format: cell-based
Conditions: single donor, 4 mM MnCl2, α4β7-positive Th memory cells, read-out: IC50, inhibition of MAdCAM-1 binding to primary cells
Protocol: The compound of Example 1 was used in competition assay on CD4+ integrin α4+β7-|o memory T cells.
Receptor occupancy in primary cells was determined by measuring the amount of biotinylated human recombinant MAdCAM-1-Fc or human recombinant VCAM-1-Fc bound to selected cell populations using flow cytometry. Human recombinant MAdCAM-1-Fc or human recombinant VCAM-1-Fc (R&D systems) were biotinylated using commercially available reagents and protocol (Pierce).
Whole blood was collected from human donors in sodium heparin tubes. A volume of 100 µL of blood was incubated with the compound of Example 1 and 4 mM MnCl2 for 1 hour at room temperature. Cells were washed twice with 1 mL of 1X Dulbecco’s phosphate buffered saline (DPBS) calcium magnesium free (CMF) (ThermoFisher Scientific) and resuspended in 100 µL of DPBS CMF. […]
Fluorescence-activated cell sorting (FACS) data was acquired by electronic gating on the basis of forward versus side scatter. […] Cell population were determined using the following markers: CD45+, CD3+, CD4+,CD45RO+, CD49d+, integrin β7, biotinylated ligands.
Compound receptor occupancy was defined as the decrease in the number of integrin β7+ or integrin β7-lo cells binding biotinylated rhMAdCAM-1 or rhVCAM-1, respectively. Receptor occupancy was calculated with the following equation: […]

`CC(C)C[C@@H]1NC(=O)c2ccc(-c3ccc(N4CCN(C(=O)c5ccccc5-c5ccccc5C(=O)N5CCN(c6ccc(-c7ccc8cc7CNC(=O)[C@@H]7CCCN7[C@H](C(=O)NC(C)(C)C)[C@H](C)NC(=O)[C@H]([C@@H](C)O)NC(=O)[C@H](CC(=O)O)NC(=O)[C@H](CC(C)C)NC8=O)cc6)CC5)CC4)cc3)c(c2)CNC(=O)[C@@H]2CCCN2[C@H](C(=O)NC(C)(C)C)[C@H](C)NC(=O)[C@H]([C@@H](C)O)NC(=O)[C@H](CC(=O)O)NC1=O` [Example 1, 2,2′-((S,S,S,S,S,S,1^2,8S,11S,14S,17S,18S)-((([1,1′-Biphenyl]-2,2′-Dicarbonyl)-Bis(Piperazine-4,1-Diyl))Bis(4,1-Phenylene))Bis(18-(Tert-Butylcarbamoyl)-14-((R)-1-Hydroxyethyl)-8-Isobutyl-17-Methyl-2,6,9,12,15-Pentaoxo-3,7,10,13,16-Pentaaza-1(2,1)-Pyrrolidina-5(1,3)-Benzenacyclooctadecaphane-5^6,11-Diyl))-Diacetic Acid] showed a pIC50 of about 7.06.
